# Reference: US9512120B2, “Microbicidally active imidazopyridine derivatives” (Syngenta Participations AG, priority 2013, dated 2016)
# Assays:
# [1] = test system: Puccinia recondita f. sp. Tritici; assay: Puccinia recondita f. sp. tritici / wheat / leaf disc curative (brown rust); assay type: in vivo; conditions: foliar, wheat leaf segments cv Kanzler, applied 1 day after inoculation, assessed 6-8 days after application, read-out: control of Puccinia recondita f. sp. Tritici (percent disease control compared to untreated)
# Description: Puccinia recondita f. Sp. Tritici/Wheat/Leaf Disc Curative (Brown Rust): Wheat leaf segments cv Kanzler were placed on agar in 24-well plates. The leaf segments were inoculated with a spore suspension of the fungus. The plates were stored in darkness at 19° C. and 75% relative humidity. The formulated test compound diluted in water was applied at an application rate of 200 ppm 1 day after inoculation. […] Tritici at 200 ppm when compared to untreated control leaf disks under the same conditions, which show extensive disease development: 2, 13, 16, 23, 30, 61, 75, 89, 103, 173, 174
# Pyrenophora teres = Pyrenophora teres / barley / leaf disc preventative (net blotch); assay type: in vivo; conditions: foliar, barley leaf segments cv Hasso, inoculated two days after application, assessed 5-7 days after application, read-out: control of Pyrenophora teres (disease control compared to untreated)
# Outline: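 Preventative leaf-disc test: 200 ppm spray, then spore inoculation after two days on barley cv Hasso segments. Incubation 20 °C, 65% relative humidity, 12 h light/12 h dark; efficacy rated against untreated checks at 5-7 days post-application.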
# [2] = test system: Glomerella lagenarium (Colletotrichum lagenarium); assay: Glomerella lagenarium (Colletotrichum lagenarium) / liquid culture (anthracnose); assay type: cell-based; conditions: Colletotrichum orbiculare, PDB, 24° C., 3-4 days after application, read-out: control of Glomerella lagenarium (inhibition of growth, photometric)
# Outline: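 Test compound, delivered in DMSO at an application rate of 200 ppm, was combined with spore-containing PDB. Photometric growth-inhibition measurement followed 3-4 days of incubation at 24° C.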
# [3] = test system: Mycosphaerella arachidis (Cercospora arachidicola); assay: Mycosphaerella arachidis (Cercospora arachidicola) / liquid culture (early leaf spot); assay type: cell-based; conditions: PDB, 24° C., 4-5 days after application, read-out: control of Mycosphaerella arachidis (inhibition of growth, photometric)
# Outline: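 Conidia suspended in potato dextrose broth and added to test compound from DMSO solution at 200 ppm. Incubated at 24 °C; growth inhibition read photometrically 4-5 days after application.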
# Pythium ultimum = Pythium ultimum / liquid culture (seedling damping off); assay type: cell-based; conditions: Globisporangium ultimum, potato dextrose broth, 24° C., 2-3 days after application, read-out: control of Pythium ultimum (inhibition of growth, photometric)
# Outline: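 Test compound in DMSO at 200 ppm was incubated with mycelia fragments and oospores in potato dextrose broth at 24 °C. Growth inhibition was read photometrically 2-3 days after application.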
# Fusarium culmorum = assay: microbe, parasite or virus in culture; assay type: cell-based; conditions: read-out: control of Fusarium culmorum (inhibition of growth, photometric)
# [4] = test system: Fusarium graminearum, syn. Gibberella zeae; assay: whole plant or invertebrate; assay type: in vivo; conditions: in Triticum aestivum, 144 h, read-out: control of Gibberella zeae (preventative fungicidal activity)
# Sclerotinia sclerotiorum = Sclerotinia sclerotiorum liquid culture (cottony rot / white mold); assay type: cell-based; conditions: PDB, 24° C., 3-4 days after application, read-out: control of Sclerotinia sclerotiorum (inhibition of growth, photometric)
# Outline: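 Mycelia fragments of Sclerotinia sclerotiorum in potato dextrose broth were added to compound in DMSO. Cultures incubated at 24° C; growth inhibition determined photometrically 3-4 days after application.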
# Plasmopara viticola = Plasmopara viticola / grape / leaf disc preventative; assay type: in vivo; conditions: foliar, grape vine leaf disks, inoculated 1 day after application, assessed 6-8 days after application, read-out: control of Plasmopara viticola (percent disease control compared to untreated)
SMILES,pest or weed control at 200 ppm [1] [%],pest or weed control at 200 ppm (Pyrenophora teres) [%],inhibition at 20 ppm [2] [%],inhibition at 20 ppm [3] [%],inhibition at 20 ppm (Pythium ultimum) [%],inhibition at 20 ppm (Fusarium culmorum) [%],pest or weed control at 20 ppm [4] [%],inhibition at 20 ppm (Sclerotinia sclerotiorum) [%],melting point [°C],pest or weed control at 200 ppm (Plasmopara viticola) [%]
"CCCn1c(-n2ncnc2N)nc2cncc(C)c21 [Compound 173, 2-(7-methyl-1-propyl-imidazo[4,5-c]pyridin-2-yl)-1,2,4-triazol-3-amine]",≥ 80,≥ 80,≥ 80,≥ 80,≥ 80,,,,,
"CCn1c(-n2ncnc2N)nc2cncc(-c3cccc(Cl)c3F)c21 [Compound 90, 2-[7-(3-chloro-2-fluorophenyl)-1-ethylimidazo[4,5-c]pyridin-2-yl]-1,2,4-triazol-3-amine]",,≥ 80,≥ 80,≥ 80,,≥ 80,≥ 80,≥ 80,,
"CCn1c(-n2ncnc2N)nc2cncc(-c3ccc(F)c(F)c3F)c21 [Compound 86, 2-[1-ethyl-7-(2,3,4-trifluorophenyl)imidazo[4,5-c]pyridin-2-yl]-1,2,4-triazol-3-amine]",,≥ 80,≥ 80,≥ 80,≥ 80,≥ 80,,≥ 80,,
"CCCn1c(-n2ncnc2N)nc2cnccc21 [Compound 13, 2-(1-propylimidazo[4,5-c]pyridin-2-yl)-1,2,4-triazol-3-amine]",≥ 80,≥ 80,≥ 80,≥ 80,≥ 80,,≥ 80,,210 to 212,
"CCCn1c(-n2ncnc2N)nc2cncc(CC)c21 [Compound 174, 2-(7-ethyl-1-propyl-imidazo[4,5-c]pyridin-2-yl)-1,2,4-triazol-3-amine]",≥ 80,≥ 80,≥ 80,,≥ 80,,,,,≥ 80
"CCn1c(-n2ncnc2N)nc2cncc(/C(C)=N\OC/C=C(\C)Cl)c21 [Compound 153, 2-[7-[(Z)-N-[(E)-3-chlorobut-2-enoxy]-C-methyl-carbonimidoyl]-1-ethyl-imidazo[4,5-c]pyridin-2-yl]-1,2,4-triazol-3-amine]",,≥ 80,≥ 80,≥ 80,,≥ 80,,≥ 80,,≥ 80
"CCn1c(-n2ncnc2N)nc2cncc(-c3cccc(OC)c3F)c21 [Compound 93, 2-[1-ethyl-7-(2-fluoro-3-methoxyphenyl)imidazo[4,5-c]pyridin-2-yl]-1,2,4-triazol-3-amine]",,≥ 80,≥ 80,≥ 80,,≥ 80,≥ 80,≥ 80,,
"CCn1c(-n2ncnc2N)nc2cncc(-c3cccc(F)c3F)c21 [Compound 102, 2-[7-(2,3-difluorophenyl)-1-ethylimidazo[4,5-c]pyridin-2-yl]-1,2,4-triazol-3-amine]",,≥ 80,≥ 80,≥ 80,≥ 80,≥ 80,≥ 80,≥ 80,,
"CCn1c(-n2ncnc2N)nc2cncc(-c3cccnc3F)c21 [Compound 89, 2-[1-ethyl-7-(2-fluoropyridin-3-yl)imidazo[4,5-c]pyridin-2-yl]-1,2,4-triazol-3-amine]",≥ 80,≥ 80,≥ 80,,≥ 80,≥ 80,≥ 80,≥ 80,,
"CCn1c(-n2ncnc2N)nc2cncc(C(C)=O)c21 [Compound 75, 1-[2-(5-amino-1,2,4-triazol-1-yl)-1-ethylimidazo[4,5-c]pyridin-7-yl]ethanone]",≥ 80,≥ 80,,≥ 80,,,,≥ 80,242 to 244,
"CCc1cncc2nc(-n3ncnc3N)n(CC)c12 [Compound 23, 2-(1,7-diethylimidazo[4,5-c]pyridin-2-yl)-1,2,4-triazol-3-amine]",≥ 80,≥ 80,≥ 80,≥ 80,≥ 80,≥ 80,≥ 80,≥ 80,176 to 179,
"CC=Cc1cncc2nc(-n3ncnc3N)n(CC)c12 [Compound 67, 2-(1-ethyl-7-prop-1-enylimidazo[4,5-c]pyridin-2-yl)-1,2,4-triazol-3-amine]",,≥ 80,≥ 80,≥ 80,≥ 80,,,≥ 80,,
